{"source": "patent US20230124862A1", "about": "“BISMUTH THIOL COMPOUNDS AND COMPOSITIONS AND METHODS OF TREATING MICROBIAL CO-INFECTIONS” (Microbion Corporation, priority 2020, published 2023)", "key": {"S. aureus [1]": {"system": "S. aureus", "settings": "S. aureus MMX 101 (ATCC 29213); cited from earlier work"}, "S. aureus [2]": {"system": "S. aureus", "assay": "Broth microdilution MIC (Example 11)", "type": "cell-based, Staphylococcus aureus", "settings": "Staphylococcus aureus, ATCC 29213 / MSSA, S. aureus MMX 101 (ATCC 29213), QC, MSSA"}, "S. pneumoniae [3]": {"system": "S. pneumoniae", "settings": "S. pneumoniae MMX 6837 (ATCC 49619); cited from earlier work"}, "Enterococcus spp.": {"system": "Enterococcus spp.", "assay": "Broth microdilution MIC (Example 11)", "type": "cell-based, E. faecalis, E. faecium"}, "P. aeruginosa": {"system": "P. aeruginosa", "assay": "Checkerboard FIC/FICI assay", "type": "cell-based, Pseudomonas aeruginosa", "settings": "for FICB / MICB: Meropenem in combination with BisEDT; for MIC: Pseudomonas aeruginosa, Meropenem alone (checkerboard with BisEDT), read-out: Drug B MIC"}, "[4]": {"system": "P. aeruginosa and A. baumannii", "settings": "P. aeruginosa MMX 103 (ATCC 27853); CLSI QC ranges shown in parenthesis; cited from earlier work"}, "Enterobacteriaceae": {"system": "Enterobacteriaceae", "settings": "E. coli MMX 102 (ATCC 25922); CLSI QC ranges shown in parenthesis; cited from earlier work"}, "[5]": {"system": "Burkholderia cepacia complex", "assay": "Checkerboard FIC/FICI assay", "type": "cell-based, Burkholderia spp.", "settings": "for MIC: Meropenem alone, panel with BisEDT, read-out: Drug B MIC"}, "[6]": {"system": "beta-hemolytic streptococci", "assay": "Broth microdilution MIC (Example 11)", "type": "cell-based, S. pyogenes, S. agalactiae"}, "S. pneumoniae [7]": {"system": "S. pneumoniae", "assay": "Broth microdilution MIC (Example 11)", "type": "cell-based, Streptococcus pneumoniae"}, "[8]": {"settings": "E. faecalis MMX 8960, VRE, Lev^R Cip^R Ery^R, read-out: MIC"}, "[9]": {"settings": "E. faecalis MMX 8962, VRE, Lev^R Cip^R Ery^R, read-out: MIC"}, "[10]": {"settings": "E. faecium MMX 485, VRE vanA, Lev^R Cip^R Ery^R, read-out: MIC"}, "[11]": {"settings": "E. faecium MMX 752, VRE vanA, Lev^R Cip^R Ery^R, read-out: MIC"}, "[12]": {"settings": "P. aeruginosa 6322, one value per panel row C-G"}, "[13]": {"settings": "P. aeruginosa 7745, by checkerboard"}, "[14]": {"settings": "P. aeruginosa 8798, by checkerboard"}, "[15]": {"settings": "P. aeruginosa 9108, by checkerboard"}, "[16]": {"settings": "B. cepacia 1793, Meropenem in combination with BisEDT, by checkerboard"}}, "note": "Values joined by “and” are separate entries in the source; they are usually repeats but may differ in a detail not shown here. Identical values can stand only once. Like-named read-outs stand apart in the source and are kept apart here."}
{"molecule": "CC[C@H]1OC(=O)[C@H](C)[C@@H](O[C@H]2C[C@@](C)(OC)[C@@H](O)[C@H](C)O2)[C@H](C)[C@@H](O[C@@H]2O[C@H](C)C[C@H](N(C)C)[C@H]2O)[C@](C)(O)C[C@@H](C)C(=O)[C@H](C)[C@@H](O)[C@]1(C)O", "note": "[Erythromycin]", "values": [{"measurement": "CLSI QC range of MIC", "setting": "S. aureus [1]", "result": "(0.25-1) μg/mL"}, {"measurement": "MIC", "setting": "S. aureus [2]; read-out: MIC", "result": 0.5, "unit": "µg/mL"}, {"measurement": "CLSI QC range of MIC", "setting": "S. pneumoniae [3]", "result": "(0.03-0.12) μg/mL"}, {"measurement": "MIC", "setting": "Enterococcus spp.; [8]", "result": "> 64", "unit": "µg/mL"}, {"measurement": "MIC", "setting": "Enterococcus spp.; E. faecalis MMX 8961, VRE, Lev^R Cip^R Ery^R, read-out: MIC", "result": "> 64", "unit": "µg/mL"}, {"measurement": "MIC", "setting": "Enterococcus spp.; [9]", "result": "> 64", "unit": "µg/mL"}, {"measurement": "MIC", "setting": "Enterococcus spp.; [10]", "result": "> 64", "unit": "µg/mL"}, {"measurement": "MIC", "setting": "Enterococcus spp.; [11]", "result": "> 64", "unit": "µg/mL"}]}
{"molecule": "C[C@@H](O)[C@H]1C(=O)N2C(C(=O)O)=C(S[C@@H]3CN[C@H](C(=O)N(C)C)C3)[C@H](C)[C@H]12", "note": "[Meropenem]", "values": [{"measurement": "FICB", "setting": "P. aeruginosa; [12]", "result": 1}, {"measurement": "MICB", "setting": "P. aeruginosa; [12]", "result": 16, "unit": "µg/mL"}, {"measurement": "FICB", "setting": "P. aeruginosa; [13]", "result": "0.25 and 0.5"}, {"measurement": "MICB", "setting": "P. aeruginosa; [13]", "result": "4 µg/mL and 8 µg/mL"}, {"measurement": "FICB", "setting": "P. aeruginosa; [14]", "result": 1}, {"measurement": "MICB", "setting": "P. aeruginosa; [14]", "result": 32, "unit": "µg/mL"}, {"measurement": "FICB", "setting": "P. aeruginosa; [15]", "result": 1}, {"measurement": "MICB", "setting": "P. aeruginosa; [15]", "result": 0.001, "unit": "µg/mL"}, {"measurement": "MIC", "setting": "P. aeruginosa; P. aeruginosa 6977", "result": 8, "unit": "µg/mL"}, {"measurement": "MIC", "setting": "P. aeruginosa; P. aeruginosa 7745", "result": 16, "unit": "µg/mL"}, {"measurement": "MIC", "setting": "P. aeruginosa; P. aeruginosa 8798", "result": 32, "unit": "µg/mL"}, {"measurement": "MIC, CLSI QC range", "setting": "[4]", "result": "(0.25-1) μg/mL"}, {"measurement": "CLSI QC range of MIC", "setting": "S. aureus [1]", "result": "(0.03-0.12) μg/mL"}, {"measurement": "MIC, CLSI QC range", "setting": "Enterobacteriaceae", "result": "(0.008-0.06) μg/mL"}, {"measurement": "MIC", "setting": "S. aureus [2]; read-out: MIC", "result": 0.06, "unit": "µg/mL"}, {"measurement": "CLSI QC range of MIC", "setting": "S. pneumoniae [3]", "result": "(0.06-0.25) μg/mL"}, {"measurement": "FICB", "setting": "[5]; B. cenocepacia 548, FIC of Meropenem (Drug B) in combination with BisEDT", "result": "0.5 and 1"}, {"measurement": "MICB", "setting": "[5]; B. cenocepacia 548, MIC of Meropenem (Drug B) in combination with BisEDT", "result": "2 µg/mL and 4 µg/mL"}, {"measurement": "MIC", "setting": "[5]; B. cenocepacia 548", "result": 4, "unit": "µg/mL"}, {"measurement": "FICB", "setting": "[5]; B. cenocepacia 813, FIC of Meropenem (Drug B) in combination with BisEDT", "result": "0.5 and 1"}, {"measurement": "MICB", "setting": "[5]; B. cenocepacia 813, MIC of Meropenem (Drug B) in combination with BisEDT", "result": "1 µg/mL and 2 µg/mL"}, {"measurement": "MIC", "setting": "[5]; B. cenocepacia 813", "result": 2, "unit": "µg/mL"}, {"measurement": "FICB", "setting": "[5]; B. cepacia 546, Meropenem in combination with BisEDT, by checkerboard", "result": "1 and 2"}, {"measurement": "FICB", "setting": "[5]; [16]", "result": "2 and 4"}, {"measurement": "MICB", "setting": "[5]; [16]", "result": "8 µg/mL and 16 µg/mL"}, {"measurement": "FICB", "setting": "[5]; B. multivorans 1795, FIC of Meropenem (Drug B) in combination with BisEDT", "result": 1}, {"measurement": "MICB", "setting": "[5]; B. multivorans 1795, MIC of Meropenem (Drug B) in combination with BisEDT", "result": 4, "unit": "µg/mL"}, {"measurement": "MIC", "setting": "Enterococcus spp.; [8]", "result": 8, "unit": "µg/mL"}, {"measurement": "MIC", "setting": "Enterococcus spp.; [9]", "result": 2, "unit": "µg/mL"}, {"measurement": "MIC", "setting": "Enterococcus spp.; [10]", "result": "> 64", "unit": "µg/mL"}, {"measurement": "MIC", "setting": "Enterococcus spp.; [11]", "result": "> 64", "unit": "µg/mL"}]}
{"molecule": "CN[C@H](CC(C)C)C(=O)N[C@H]1C(=O)N[C@@H](CC(N)=O)C(=O)N[C@H]2C(=O)N[C@H]3C(=O)N[C@H](C(=O)N[C@H](C(=O)O)c4cc(O)cc(O)c4-c4cc3ccc4O)[C@H](O)c3ccc(c(Cl)c3)Oc3cc2cc(c3O[C@@H]2O[C@H](CO)[C@@H](O)[C@H](O)[C@H]2O[C@H]2C[C@](C)(N)[C@H](O)[C@H](C)O2)Oc2ccc(cc2Cl)[C@H]1O", "note": "[vancomycin, reference compound]", "values": [{"measurement": "MIC", "setting": "[6]; Streptococcus pyogenes, S. pyogenes MMX 3820, ERY^R CLI^R", "result": 0.5, "unit": "µg/mL"}, {"measurement": "MIC", "setting": "[6]; Streptococcus pyogenes, S. pyogenes MMX 3919, ERY^R", "result": 0.5, "unit": "µg/mL"}, {"measurement": "MIC", "setting": "[6]; Streptococcus pyogenes, S. pyogenes MMX 3929, ERY^R CC^R", "result": 0.5, "unit": "µg/mL"}, {"measurement": "MIC", "setting": "[6]; Streptococcus pyogenes, S. pyogenes MMX 5091, ERY^R CC^R", "result": 0.5, "unit": "µg/mL"}, {"measurement": "CLSI QC range of MIC", "setting": "S. aureus [1]", "result": "(0.5-2) μg/mL"}, {"measurement": "MIC", "setting": "S. aureus [2]", "result": 1, "unit": "µg/mL"}, {"measurement": "CLSI QC range of MIC", "setting": "S. pneumoniae [3]", "result": "(0.12-0.5) μg/mL"}, {"measurement": "MIC", "setting": "Enterococcus spp.", "result": "> 64", "unit": "µg/mL"}, {"measurement": "MIC", "setting": "Enterococcus spp.; E. faecalis MMX 8960, VRE, Lev^R Cip^R Ery^R", "result": ">64", "unit": "µg/mL"}, {"measurement": "MIC", "setting": "Enterococcus spp.; E. faecalis MMX 8962, VRE, Lev^R Cip^R Ery^R", "result": ">64", "unit": "µg/mL"}, {"measurement": "MIC", "setting": "Enterococcus spp.; E. faecium MMX 485, VRE vanA, Lev^R Cip^R Ery^R", "result": ">64", "unit": "µg/mL"}, {"measurement": "MIC", "setting": "Enterococcus spp.; E. faecium MMX 752, VRE vanA, Lev^R Cip^R Ery^R", "result": ">64", "unit": "µg/mL"}]}
{"molecule": "Penicillin", "values": [{"measurement": "MIC", "setting": "S. pneumoniae [7]; S. pneumoniae MMX 880, Lev^R SXT^R CC^R Ery^R Pen^R", "result": 2, "unit": "µg/mL"}, {"measurement": "MIC", "setting": "S. pneumoniae [7]; S. pneumoniae MMX 937, Mem^R SXT^R CC^R Ery^R Per^R", "result": 4, "unit": "µg/mL"}, {"measurement": "MIC", "setting": "S. pneumoniae [7]; S. pneumoniae MMX 3959, CC^R Ery^R", "result": 0.12, "unit": "µg/mL"}, {"measurement": "MIC", "setting": "S. pneumoniae [7]; S. pneumoniae MMX 5440, Mem^R SXT^R CC^R Ery^R Pen^R", "result": 4, "unit": "µg/mL"}, {"measurement": "MIC", "setting": "S. pneumoniae [7]; S. pneumoniae MMX 5445, Mem^R SXT^R CC^R Ery^R Pen^R", "result": 4, "unit": "µg/mL"}, {"measurement": "MIC", "setting": "S. pneumoniae [7]; S. pneumoniae MMX 6837 (ATCC 49619), QC", "result": 0.25, "unit": "µg/mL"}, {"measurement": "MIC", "setting": "S. pneumoniae [7]; S. pneumoniae MMX 8133, Mem^R SXT^R CC^R Ery^R Pen^R", "result": 4, "unit": "µg/mL"}, {"measurement": "MIC", "setting": "[6]; S. agalactiae MMX 3741, ERY^R CC^R", "result": 0.03, "unit": "µg/mL"}, {"measurement": "MIC", "setting": "[6]; S. agalactiae MMX 3743, ERY^R CC^R", "result": 0.06, "unit": "µg/mL"}, {"measurement": "MIC", "setting": "[6]; S. agalactiae MMX 4077, ERY^R CC^R", "result": 0.06, "unit": "µg/mL"}, {"measurement": "MIC", "setting": "[6]; S. agalactiae MMX 4079, ERY^R CC^R Pen^R MEM^R", "result": 2, "unit": "µg/mL"}, {"measurement": "MIC", "setting": "[6]; S. agalactiae MMX 4086, ERY^R CC^R", "result": 0.06, "unit": "µg/mL"}, {"measurement": "MIC", "setting": "[6]; S. pyogenes MMX 3068, Ery^R", "result": "≤0.008", "unit": "µg/mL"}, {"measurement": "MIC", "setting": "[6]; S. pyogenes MMX 3820, ERY^R CLI^R", "result": "≤0.008", "unit": "µg/mL"}, {"measurement": "MIC", "setting": "[6]; S. pyogenes MMX 3919, ERY^R", "result": "≤0.008", "unit": "µg/mL"}, {"measurement": "MIC", "setting": "[6]; S. pyogenes MMX 3929, ERY^R CC^R", "result": "≤0.008", "unit": "µg/mL"}, {"measurement": "MIC", "setting": "[6]; S. pyogenes MMX 5091, ERY^R CC^R", "result": "≤0.008", "unit": "µg/mL"}, {"measurement": "CLSI QC range of MIC", "setting": "S. pneumoniae [3]", "result": "(0.25-1) μg/mL"}]}
